Consider 55 compounds from patent US10639284B2, “Immunomodulator compounds” (CHEMOCENTRYX, INC., priority 2016, dated 2020).

Where two headings read alike, the source gives them in different places.

This test addresses human PD-L1 / Human PD-1 (Homo sapiens (Human), UniProt Q9NZQ7). Description: Enzyme-Linked Immunosorbent Assay (ELISA), PD-1/PD-L1 binding. In a few lines:
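Human PD-L1 coated at 1 μg/mL overnight at 4° C; samples diluted 1:5 and incubated with human PD-1 and biotin (0.3 μg/mL) for 1 h at 37° C. Bound PD-1 detected with streptavidin-HRP and TMB (20 min, 37° C), acid-stopped, absorbance at 450 nm.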
For orientation: In an ELISA, binding on a coated surface is turned into a signal by an enzyme label.

Where [1] appears, read: Table 2, plate-coated human PD-L1, biotinylated human PD-1, read-out: ELISA IC50.
The mark [2] stands for this setting: Table 3, plate-coated human PD-L1, biotinylated human PD-1, read-out: ELISA IC50.

Sequence of human PD-L1 / Human PD-1 (Q9NZQ7 19-239): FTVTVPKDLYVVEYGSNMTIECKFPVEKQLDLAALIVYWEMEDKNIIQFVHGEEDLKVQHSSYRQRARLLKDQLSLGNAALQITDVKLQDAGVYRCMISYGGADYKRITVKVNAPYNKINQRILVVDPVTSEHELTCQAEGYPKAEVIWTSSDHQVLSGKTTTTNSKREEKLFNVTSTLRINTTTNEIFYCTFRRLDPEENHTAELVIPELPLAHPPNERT

With `OC1CCN(Cc2cc(Cl)c(O[C@H]3CCc4c(-c5ccccc5F)cccc43)cc2OCc2cnc(Cl)nc2)CC1` [Example 2.111], the IC50 under setting [1] lay within 100 to 500 nM.

With `Cc1ccc(-c2cccc3c2CC[C@@H]3Oc2cc(OCc3cncc(C#N)c3)c(CN[C@@H](CO)C(=O)O)cc2Cl)c(F)c1` [Example 2.068], the IC50 under setting [1] is 100 to 500 nM.

Consider `N#Cc1cncc(COc2cc(O[C@H]3CCc4c(-c5ccccc5F)cccc43)c(Cl)cc2CNC(Cc2cccnc2)C(=O)O)c1` (stereo partly shown) [Example 3.094], for which, under setting [2], the IC50 was below 100 nM.

On to `COc1cccc(-c2cccc3c2CC(C)C3Oc2cc(OCc3cncc(C#N)c3)c(CN[C@@H](CO)C(=O)O)cc2Cl)c1F` (stereo partly shown) [Example 2.049], for which the IC50 under setting [1] was 500 to 20000 nM.

`N#Cc1cc(C#N)cc(COc2cc(O[C@H]3CCc4c(-c5ccccc5)cccc43)c(Cl)cc2CN[C@@H](CO)C(=O)O)c1` [Example 3.022]: the IC50 under setting [2] was below 100 nM.

In the case of `CC(N[C@@H](CO)C(=O)O)c1cc(Cl)c(O[C@H]2CCc3c(C4=CCCC4)cccc32)cc1OCc1cncc(C#N)c1` (stereo partly shown) [Example 3.112], the half-maximal inhibitory concentration (IC50) under setting [2] lay within 100 to 500 nM.

Take `COc1cccc(F)c1-c1cccc2c1CC[C@@H]2Oc1cc(OCc2cncc(C#N)c2)c(CN2CCC(O)CC2)cc1Cl` [Example 2.108]: under setting [1], the IC50 was 500 to 20000 nM.

For `N#Cc1cncc(COc2cc(O[C@H]3CCc4c(-c5ccccc5F)cccc43)c(Cl)cc2CN2CC[C@H](O)[C@H](F)C2)c1` [Example 2.113], under setting [1], the IC50 was 500 to 20000 nM.

Consider `N#Cc1cncc(COc2cc(O[C@H]3CCc4c(-c5cccc(O)c5)cccc43)c(Cl)cc2CN[C@@H](CO)C(=O)O)c1` [Example 3.118], for which, under setting [2], the IC50 is below 100 nM.

As for `COc1cccc(-c2cccc3c2CC[C@@H]3Oc2cc(OCc3cncc(C#N)c3)c(CN3C[C@H](O)C[C@@H]3C(=O)O)cc2Cl)c1F` [Example 2.073], under setting [1], the IC50 was below 100 nM.

Turning to `N#Cc1cncc(COc2cc(O[C@@H]3CCc4c(-c5ccccc5F)cccc43)c(Cl)cc2CN2CCC(O)CC2)c1` [Example 2.136], the IC50 under setting [1] is 100 to 500 nM.

`C[C@@H](O)[C@H](NCc1cc(Cl)c(O[C@H]2CCc3c(-c4ccccc4F)cccc32)cc1OCc1cncc(C#N)c1)C(=O)OC(C)(C)C` [Example 3.135]: under setting [2], the IC50 lay within 500 to 20000 nM.

On to `C[C@@H](O)[C@H](NCc1cc(Cl)c(O[C@H]2CCc3c(-c4ccccc4F)cccc32)cc1OCc1cncc(C#N)c1)C(N)=O` [Example 2.149], for which the IC50 under setting [1] was 100 to 500 nM.

In the case of `C[C@H](NCc1cc(Cl)c(O[C@H]2CCc3c(-c4ccccc4F)cccc32)cc1OCc1cncc(C#N)c1)C(=O)O` [Example 2.098], under setting [1], the IC50 was below 100 nM.

In the case of `COc1cccc(-c2cccc3c2CC[C@@H]3Oc2cc(OCc3cc(C#N)cc(C#N)c3)c(CN[C@@H](CO)C(=O)O)cc2Cl)c1Cl` [Example 3.016], the IC50 under setting [2] was below 100 nM.

As to `N#Cc1cncc(COc2cc(OC3CCc4c(-c5ccccc5)cccc43)c(Cl)cc2CNCCO)c1` (stereo not shown) [Example 1.004], the IC50 under setting [1] was below 100 nM.

`Cn1nnc(-c2cncc(COc3cc(O[C@H]4CCc5c(-c6ccccc6F)cccc54)c(Cl)cc3CN[C@@H](CO)C(=O)O)c2)n1` [Example 3.101]: the IC50 under setting [2] was 100 to 500 nM.

As for `C[C@H](O)[C@H](NCc1cc(Cl)c(O[C@H]2CCc3c(-c4ccccc4F)cccc32)cc1OCc1cncc(C#N)c1)C(=O)O` [Example 2.127], the IC50 under setting [1] is below 100 nM.

Turning to `COc1ccc(Cl)c(-c2cccc3c2CC[C@@H]3Oc2cc(OCc3cncc(C#N)c3)c(CN[C@@H](CO)C(=O)O)cc2Cl)c1` [Example 2.065], the IC50 under setting [1] was below 100 nM.

In the case of `COc1cccc(-c2cccc3c2CC[C@@H]3Oc2cc(OCc3cncc(C#N)c3)c(CN3CCC[C@H](O)C3)cc2Cl)c1F` [Example 2.060], the IC50 under setting [1] lay in the range of 100 to 500 nM.

For the compound `COc1cccc(-c2cccc3c2CCC3CCOc2cc(OCc3cncc(C#N)c3)c(CN3CC(O)C3)cc2Cl)c1F` (stereo not shown) [Example 2.088], the IC50 under setting [1] was 500 to 20000 nM.

For `N#Cc1cncc(COc2cc(O[C@H]3CCc4c(-c5ccccc5F)cccc43)c(Cl)cc2CN[C@@H](CCC(=O)O)C(=O)O)c1` [Example 2.117], the IC50 under setting [1] is below 100 nM.

`N#Cc1cncc(COc2cc(O[C@H]3CCc4c(-c5ccccc5F)cccc43)c(Cl)cc2CN2CCC(F)CC2)c1` [Example 2.094] came in with an IC50 of 100 to 500 nM.

With `COc1cccc(-c2cccc3c2CC[C@@H]3Oc2cc(OCc3cncc(C#N)c3)c(CNCc3ccc(B(O)O)cc3)cc2Cl)c1F` [Example 2.066], the IC50 under setting [1] fell in the range of 500 to 20000 nM.

`C[C@@H](O)[C@H](NCc1cc(Cl)c(O[C@H]2CCc3c(-c4ccccc4F)cccc32)cc1OCc1cccnn1)C(=O)O` [Example 2.133]: under setting [1], the IC50 was 100 to 500 nM.

`COc1ccc(-c2cccc3c2CC[C@@H]3Oc2cc(OCc3cncc(C#N)c3)c(CN[C@@H](CO)C(=O)O)cc2Cl)cc1C` [Example 2.023]: the IC50 under setting [1] was 100 to 500 nM.

For `CCOc1cc(O[C@H]2CCc3c(-c4ccccc4F)cccc32)c(Cl)cc1CN[C@@H](C)C(=O)O` [Example 2.153], under setting [1], the IC50 was 100 to 500 nM.

For the compound `CCOc1cc(O[C@H]2CCc3c(-c4ccccc4F)cccc32)c(Cl)cc1CNC(CO)(CO)CO` [Example 2.164], under setting [1], the IC50 is below 100 nM.

For the compound `COc1cccc(-c2cccc3c2CC[C@@H]3Oc2cc(OCc3cncc(C#N)c3)c(CN3CCC[C@@H](O)C3)cc2Cl)c1F` [Example 2.055], the IC50 under setting [1] lay in the range of 100 to 500 nM.

With `CC(CO)(NCc1cc(Cl)c(O[C@H]2CCc3c(-c4ccccc4F)cccc32)cc1OCc1cncc(C#N)c1)C(=O)O` (stereo partly shown) [Example 2.152], the IC50 under setting [1] is below 100 nM.

Turning to `O=C(O)[C@H](CO)NCc1cc(Cl)c(O[C@H]2CCc3c(-c4ccc5c(c4F)OCCO5)cccc32)cc1OCc1cc(F)cc(Cl)c1` [Example 3.013], under setting [2], the concentration for half-maximal inhibition (IC50) was in the range of 500 to 20000 nM.

`N#Cc1cncc(COc2cc(O[C@H]3CCc4c(-c5ccccc5F)cccc43)c(Cl)cc2CNC23CC(C2)C3)c1` [Example 2.017]: the IC50 under setting [1] is 500 to 20000 nM.

Take `Cc1cccc(-c2cccc3c2CC[C@@H]3Oc2cc(OCc3cncc(C#N)c3)c(CN[C@@H](CO)C(=O)O)cc2Cl)c1F` [Example 2.046]: the IC50 under setting [1] is below 100 nM.

In the case of `N#Cc1cncc(COc2cc(O[C@H]3CCc4c(-c5ccccc5F)cccc43)c(Cl)cc2CN[C@H](CC(N)=O)C(=O)O)c1` [Example 3.104], the IC50 under setting [2] is below 100 nM.

For `COc1cc(O[C@H]2CCc3c(-c4cccc(OC)c4F)cccc32)c(Cl)cc1CN[C@@H](CO)C(=O)O` [Example 2.040], the IC50 under setting [1] was below 100 nM.

For the compound `N#Cc1cncc(COc2cc(O[C@H]3CCc4c(-c5ccccc5F)cccc43)c(Cl)cc2CN[C@@H](CO)C(=O)N[C@@H](CO)C(=O)N[C@@H](CO)C(=O)O)c1` [Example 3.048], the IC50 under setting [2] is below 100 nM.

With `C[C@H](NCc1cc(Cl)c(O[C@H]2CCc3c(-c4ccccc4F)cccc32)cc1OCc1cncc(C#N)c1)C(=O)N[C@@H](C)P(=O)(O)O` [Example 3.086], the IC50 under setting [2] is below 100 nM.

`OC1CCN(Cc2cc(Cl)c(O[C@H]3CCc4c(-c5ccccc5F)cccc43)cc2OCc2cccnc2)CC1` [Example 2.116]: the IC50 under setting [1] was 500 to 20000 nM.

As for `N#Cc1cncc(COc2cc(O[C@H]3CCc4c(-c5ccccc5F)cccc43)c(Cl)cc2CN[C@H]2CCc3ccc(O)cc3C2)c1` [Example 3.093], the IC50 under setting [2] fell in the range of 100 to 500 nM.

Take `N#Cc1cncc(-c2cc(O[C@H]3CCc4c(-c5ccccc5F)cccc43)c(Cl)cc2CN2CCC(O)CC2)c1` [Example 2.112]: the IC50 under setting [1] fell in the range of 500 to 20000 nM.

Consider `CCOc1cc(O[C@H]2CCc3c(-c4ccccc4F)cccc32)c(Cl)cc1CN[C@H](CO)C(=O)O` [Example 2.156], for which the IC50 under setting [1] fell in the range of 100 to 500 nM.

Consider `COc1ccc(-c2cccc3c2CC[C@@H]3Oc2cc(OCc3cncc(C#N)c3)c(CN[C@@H](CO)C(=O)O)cc2Cl)cc1OC` [Example 2.021], for which, under setting [1], the IC50 lay within 500 to 20000 nM.

As to `Cc1n[nH]c(C)c1CNCc1cc(Cl)c(O[C@H]2CCc3c(-c4ccccc4F)cccc32)cc1OCc1cncc(C#N)c1` [Example 3.082], the IC50 under setting [2] is 100 to 500 nM.

Regarding `COc1cccc(-c2cccc3c2CC[C@@H]3Oc2cc(OCc3cncc(C#N)c3)c(CN3CCC(O)CC3)cc2Cl)c1Cl` [Example 2.071], the IC50 under setting [1] lay within 100 to 500 nM.

On to `N#Cc1cncc(COc2cc(O[C@H]3CCc4c(-c5ccccc5)cccc43)c(Cl)cc2CN2CC(O)C2)c1` [Example 2.001], for which, under setting [1], the IC50 lay within 100 to 500 nM.

Regarding `N#Cc1cccc(COc2cc(O[C@H]3CCc4c(-c5ccccc5F)cccc43)c(Cl)cc2CN2CCC(O)CC2)c1` [Example 2.110], the IC50 under setting [1] lay in the range of 500 to 20000 nM.

As for `COc1cccc(-c2cccc3c2CC[C@@H]3Oc2cc(OCc3cncc(C#N)c3)c(CN3CCC(C(N)=O)CC3)cc2Cl)c1Cl` [Example 2.083], the IC50 under setting [1] is 100 to 500 nM.

`CCOc1cc(NC2CCc3c(-c4ccccc4F)cccc32)c(Cl)cc1CN[C@@H](CO)C(=O)O` (stereo partly shown) [Example 3.133]: the IC50 under setting [2] was in the range of 100 to 500 nM.

Consider `N#Cc1cncc(COc2cc(O[C@H]3CCc4c(-c5ccccc5F)cccc43)c(Cl)cc2CNC2(C(=O)O)CCC2)c1` [Example 2.145], for which the IC50 under setting [1] is below 100 nM.

On to `N#Cc1cncc(COc2cc(O[C@H]3CCc4c(-c5ccccc5F)cccc43)c(Cl)cc2CN[C@H]2CCC[C@@H]2O)c1` [Example 3.019], for which, under setting [2], the IC50 is below 100 nM.

As for `COC(=O)[C@H](CO)NC(C)c1cc(Cl)c(O[C@H]2CCc3c(-c4ccccc4F)cccc32)cc1OCc1cncc(C#N)c1` (stereo partly shown) [Example 3.109], under setting [2], the IC50 lay in the range of 500 to 20000 nM.

Regarding `N#Cc1cncc(COc2cc(O[C@H]3CCc4c(-c5cc(F)c6c(c5)OCCO6)cccc43)c(Cl)cc2CN[C@@H](CO)C(=O)O)c1` [Example 3.017], the IC50 under setting [2] is below 100 nM.

As to `N#Cc1cncc(COc2cc(O[C@H]3CCc4c(-c5ccccc5F)cccc43)c(Cl)cc2CN[C@H](CNC(=N)N)C(=O)O)c1` [Example 3.083], the IC50 under setting [2] was below 100 nM.

Regarding `N#Cc1cncc(COc2cc(O[C@H]3CCc4c(-c5ccccc5F)cccc43)c(Cl)cc2CN[C@@H](CO)C(N)=O)c1` [Example 2.167], the IC50 under setting [1] lay within 100 to 500 nM.

With `N#Cc1cncc(-c2cc(O[C@H]3CCc4c(-c5ccccc5F)cccc43)c(Cl)cc2CN[C@@H](CO)C(=O)O)c1` [Example 2.115], under setting [1], the IC50 is below 100 nM.

One may read the IC50 as the point on the concentration scale where inhibition reaches its midpoint.
